Assay results from the NIST ThermoML archive (doi:10.1016/j.jct.2012.01.022).

Test: xn = mol fraction of the nth substance listed
Conditions: 101 kPa, Liquid; for speed of sound: Sing-around technique in a fixed-path interferometer; for mass density: Vibrating tube method; for viscosity: Capillary tube (Ostwald / Ubbelohde) method

NCCN [ethane-1,2-diamine] + CCCCCCO
Conditions | mass density, 303.15 K [kg/m3] | speed of sound, 303.15 K [m/s] | speed of sound, 308.15 K [m/s] | viscosity, 308.15 K [mPa·s]
x1 = 0.0773 | 816.783 | – | 1287.8 | 3.066
x1 = 0.1213 | 819.755 | – | 1298.2 | 3.025
x1 = 0.1604 | 822.223 | – | 1307 | 2.971
x1 = 0.1925 | 824.193 | – | 1314.6 | 2.923
x1 = 0.2525 | 827.911 | – | 1329.3 | 2.814
x1 = 0.2907 | 830.062 | – | 1338.1 | 2.737
x1 = 0.3942 | 836.182 | – | 1364.6 | 2.479
x1 = 0.5086 | 842.967 | 1413.9 | 1395.8 | 2.174
x1 = 0.6059 | 849.135 | 1444.7 | 1426.1 | 1.892
x1 = 0.7125 | 857.138 | 1483.7 | 1464.4 | 1.62
x1 = 0.81 | 865.482 | 1528.5 | – | 1.404
x1 = 0.8583 | 870.432 | 1554.7 | – | 1.316
x1 = 0.9028 | 875.713 | 1581.5 | – | 1.241
x1 = 0.945 | 880.874 | 1609.2 | – | 1.18
